Legend:
[1] = test system: HIV-1GRL98065r-40P; assay: microbe, parasite or virus in culture; assay type: cell-based; details: for IC50: Human immunodeficiency virus 1, MT4, read-out: IC50 against HIV-1GRL98065r-40P; for fold change of IC50, HIV-1GRL98065r-40P: compared to HIV-1NL4-3
Method: Drug susceptibility assay. The susceptibility of HIV-1LAI, HIV-2EHO, HIV-2ROD, to various drugs and the cytotoxicity of those drugs was determined by using the MTT assay. Briefly, MT-2 cells (2×10^4/mL) were exposed to 100 TCID50s (50% tissue culture infectious doses) of HIV-1LAI, HIV-2EHO, or HIV-2ROD in the presence or absence of various concentrations of drugs in 96-well microculture plates and were incubated at 37° C. for 7 days. After 100 μL of the medium was removed from each well, 3-(4,5-dimethylthiazol-2-yl)-2,5-diphenyltetrazolium bromide (MTT) solution (10 μL, 7.5 mg/mL in phosphate-buffered saline) was added to each well in the plate, followed by incubation at 37° C. for 4 hours. […] All assays were performed in duplicate or triplicate. To determine the sensitivity of HIV-1Ba-L, HIV-1ERS104 pre, and clinical multi-drug-resistant HIV-1 isolates and different subtypes of HIV-1 isolates to drugs, phytohemagglutinin-activated peripheral blood mononuclear cells (PHA-PBMs; 10^6/mL) were exposed to 50 TCID50 (50% tissue infectious dose) of each HIV-1 isolate and cultured in the presence or absence of various concentrations of drugs in 10-fold serial dilutions in 96-well microtiter culture plates. To determine the drug susceptibility of certain laboratory HIV-1 strains (HIV-1NL4-3), MT-4 cells were used as target cells. MT-4 cells (10^5/mL) were exposed to 100 TCID50 of wild type HIV-1NL4-3 and PI-resistant HIV-1NL4-3 in the presence or absence of various concentrations of drugs and were incubated at 37° C. On day 7 of culture, the supernatant was harvested and the amount of p24 Gag protein was determined by using a fully automated chemiluminescent enzyme immunoassay system (Lumipulse F; Fujirebio Inc., Tokyo, Japan) (22). […] All assays were performed in duplicate or triplicate. […]

[2] = test system: HIV-1ATV1μM; assay: microbe, parasite or virus in culture; assay type: cell-based; details: for IC50: Human immunodeficiency virus 1, MT4, read-out: IC50 against HIV-1ATV1μM; for fold change of IC50, HIV-1ATV1μM: compared to wild-type HIV-1NL4-3
Method: (§1) Drug susceptibility assay. The susceptibility of HIV-1LAI, HIV-2EHO, HIV-2ROD, to various drugs and the cytotoxicity of those drugs was determined by using the MTT assay. Briefly, MT-2 cells (2×10^4/mL) were exposed to 100 TCID50s (50% tissue culture infectious doses) of HIV-1LAI, HIV-2EHO, or HIV-2ROD in the presence or absence of various concentrations of drugs in 96-well microculture plates and were incubated at 37° C. for 7 days. After 100 μL of the medium was removed from each well, 3-(4,5-dimethylthiazol-2-yl)-2,5-diphenyltetrazolium bromide (MTT) solution (10 μL, 7.5 mg/mL in phosphate-buffered saline) was added to each well in the plate, followed by incubation at 37° C. for 4 hours. […] All assays were performed in duplicate or triplicate. To determine the sensitivity of HIV-1Ba-L, HIV-1ERS104 pre, and clinical multi-drug-resistant HIV-1 isolates and different subtypes of HIV-1 isolates to drugs, phytohemagglutinin-activated peripheral blood mononuclear cells (PHA-PBMs; 10^6/mL) were exposed to 50 TCID50 (50% tissue infectious dose) of each HIV-1 isolate and cultured in the presence or absence of various concentrations of drugs in 10-fold serial dilutions in 96-well microtiter culture plates. To determine the drug susceptibility of certain laboratory HIV-1 strains (HIV-1NL4-3), MT-4 cells were used as target cells. MT-4 cells (10^5/mL) were exposed to 100 TCID50 of wild type HIV-1NL4-3 and PI-resistant HIV-1NL4-3 in the presence or absence of various concentrations of drugs and were incubated at 37° C. On day 7 of culture, the supernatant was harvested and the amount of p24 Gag protein was determined by using a fully automated chemiluminescent enzyme immunoassay system (Lumipulse F; Fujirebio Inc., Tokyo, Japan) (22). […] All assays were performed in duplicate or triplicate.
(§2) Generation of PI-resistant HIV-1 in vitro. MT-4 cells (10^5/mL) were exposed to HIV-1NL4-3 (500 TCID50) and cultured in the presence of various PIs at an initial concentration of its IC50 values. Viral replication was monitored by determination of the amount of p24 Gag produced by MT-4 cells. The culture supernatants were harvested on day 7 and used to infect fresh MT-4 cells for the next round of culture in the presence of increasing concentrations of each drug. […] Proviral DNA samples obtained from the lysates of infected cells were subjected to nucleotide sequencing. This drug selection procedure was carried out until the drug concentration reached 1 or 5 μM.

[3] = test system: HIV-1SQV5μM; assay: microbe, parasite or virus in culture; assay type: cell-based; details: for IC50: Human immunodeficiency virus 1, MT4, read-out: IC50 against HIV-1SQV5μM; for fold change of IC50, HIV-1SQV5μM: compared to wild-type HIV-1NL4-3
Method: as §1, §2

[4] = test system: HIV-1NFV5μM; assay: microbe, parasite or virus in culture; assay type: cell-based; details: for IC50: Human immunodeficiency virus 1, MT4, read-out: IC50 against HIV-1NFV5μM; for fold change of IC50, HIV-1NFV5μM: compared to wild-type HIV-1NL4-3
Method: as §1, §2

[5] = test system: HIV-1IDV5μM; assay: microbe, parasite or virus in culture; assay type: cell-based; details: for IC50: Human immunodeficiency virus 1, MT4, read-out: IC50 against HIV-1IDV5μM; for fold change of IC50, HIV-1IDV5μM: compared to wild-type HIV-1NL4-3
Method: as §1, §2

[6] = test system: HIV-1RTV5μM; assay: microbe, parasite or virus in culture; assay type: cell-based; details: for IC50: Human immunodeficiency virus 1, MT4, read-out: IC50 against HIV-1RTV5μM; for fold change of IC50, HIV-1RTV5μM: compared to wild-type HIV-1NL4-3
Method: as §1, §2

[7] = test system: HIV-1APV5μM; assay: microbe, parasite or virus in culture; assay type: cell-based; details: for IC50: Human immunodeficiency virus 1, MT4, read-out: IC50 against HIV-1APV5μM; for fold change of IC50, HIV-1APV5μM: compared to wild-type HIV-1NL4-3
Method: as §1, §2

[8] = test system: HIV-1LPV1μM; assay: microbe, parasite or virus in culture; assay type: cell-based; details: for IC50: Human immunodeficiency virus 1, MT4, read-out: IC50 against HIV-1LPV1μM; for fold change of IC50, HIV-1LPV1μM: compared to wild-type HIV-1NL4-3
Method: as §1, §2

[9] = test system: HIV-1, HIV-2, and primary HIV-1 strains of different subtypes; assay: Antiviral activity over Tables 1, 2 and 5 (summary); assay type: cell-based
Method: (§3) Drug susceptibility assay. The susceptibility of HIV-1LAI, HIV-2EHO, HIV-2ROD, to various drugs and the cytotoxicity of those drugs was determined by using the MTT assay. Briefly, MT-2 cells (2×10^4/mL) were exposed to 100 TCID50s (50% tissue culture infectious doses) of HIV-1LAI, HIV-2EHO, or HIV-2ROD in the presence or absence of various concentrations of drugs in 96-well microculture plates and were incubated at 37° C. for 7 days. After 100 μL of the medium was removed from each well, 3-(4,5-dimethylthiazol-2-yl)-2,5-diphenyltetrazolium bromide (MTT) solution (10 μL, 7.5 mg/mL in phosphate-buffered saline) was added to each well in the plate, followed by incubation at 37° C. for 4 hours. […] All assays were performed in duplicate or triplicate. […] On day 7 of culture, the supernatant was harvested and the amount of p24 Gag protein was determined by using a fully automated chemiluminescent enzyme immunoassay system (Lumipulse F; Fujirebio Inc., Tokyo, Japan) (22). […]

[10] = Cytotoxicity by MTT assay; assay type: cell-based, Human; details: human
Method: as §1

[11] = test system: HIV-2 strains (HIV-2EHO and HIV-2ROD); assay: MTT assay, MT-2 cells, HIV-2 strains compared with HIV-1LAI; assay type: cell-based
Method: as §3

Row | Compound | IC50 [1] | IC50 [2] | IC50 [3] | IC50 [4] | IC50 [5] | IC50 [6] | IC50 [7] | IC50 [8] | fold change of IC50, HIV-1GRL98065r-40P [1] | fold change of IC50, HIV-1ATV1μM [2] | fold change of IC50, HIV-1SQV5μM [3] | fold change of IC50, HIV-1NFV5μM [4] | fold change of IC50, HIV-1IDV5μM [5] | fold change of IC50, HIV-1RTV5μM [6] | fold change of IC50, HIV-1APV5μM [7] | fold change of IC50, HIV-1LPV1μM [8] | IC50 [9] | CC50 at 7 days [10] | factor by which potency against HIV-2 strains is less than against HIV-1LAI [11]
1 | CC(C)CN(C[C@@H](O)[C@H](Cc1ccccc1)NC(=O)O[C@H]1CCOC1)S(=O)(=O)c1ccc(N)cc1 [APV, Amprenavir] | > 1000 nM | 200 ± 70 nM | 330 ± 30 nM | 60 ± 4 nM | 170 ± 10 nM | 280 ± 20 nM | > 1000 nM | 310 ± 20 nM | – | – | – | – | – | – | – | – | – | – | –
2 | COC(=O)N[C@H](C(=O)N[C@@H](Cc1ccccc1)[C@@H](O)CN(Cc1ccc(-c2ccccn2)cc1)NC(=O)[C@@H](NC(=O)OC)C(C)(C)C)C(C)(C)C [ATV, Atazanavir] | 11 nM | 330 nM | 326 ± 1 nM | 21 ± 6 nM | 60 ± 20 nM | 18 ± 8 nM | 3 ± 1 nM | 40 ± 2 nM | 3 | 79 | 78 | 5 | 14 | 4 | 1 | 10 | – | – | –
3 | CC(C)CN(CC(O)C(Cc1ccccc1)NC(=O)OC1COC2OCCC12)S(=O)(=O)c1ccc2c(c1)OCO2 (stereo not shown) [GRL-98065] | 180 nM | 1.5 ± 0.9 nM | 6 ± 3 nM | 2.4 ± 0.8 nM | 3.7 ± 0.7 nM | 2.5 ± 0.3 nM | 32 nM | 7.5 ± 0.3 nM | 600 | 5 | 20 | 8 | 12 | 8 | 107 | 25 | 0.2 to 4.5 nM | 35700 nM | 6-9
4 | CC(C)(C)NC(=O)[C@@H]1CN(Cc2cccnc2)CCN1C[C@@H](O)C[C@@H](Cc1ccccc1)C(=O)N[C@H]1c2ccccc2C[C@H]1O [IDV, indinavir] | 280 nM | 388 ± 1 nM | > 1000 nM | 270 ± 50 nM | > 1000 nM | 250 ± 10 nM | 200 ± 7 nM | > 1000 nM | – | – | – | – | – | – | – | – | – | – | –
5 | CC(C)(C)NC(=O)[C@@H]1C[C@@H]2CCCC[C@@H]2CN1C[C@@H](O)[C@H](Cc1ccccc1)NC(=O)[C@H](CC(N)=O)NC(=O)c1ccc2ccccc2n1 [SQV, Saquinavir] | 32 nM | 37 ± 4 nM | > 1000 nM | 24 ± 8 nM | 59 ± 4 nM | 10 ± 8 nM | 31 ± 4 nM | 32 ± 2 nM | 5 | 5 | > 143 | 3 | 8 | 1 | 4 | 5 | – | – | –

From patent publication US9808527B2, “Methods and compositions for treating HIV infections” (priority 2006, dated 2017)
